Experiments:
[1] = tested on: children with hypochondroplasia; design: species or system human; conditions: in vivo
Text: The study has 3 prespecified co-primary outcomes: 1. To evaluate the safety and tolerability of daily subcutaneous injections of vosoritide administered for 12 months in patients with selected genetic causes of short stature, 2. To evaluate the change from baseline in age-sex standardized annualized growth velocity after 12 months of daily SC injections of vosoritide in patients with selected genetic causes of short stature, and 3. To evaluate the change from baseline in age-sex standardized height SDS after 12 months of daily SC injections of vosoritide in patients with selected genetic causes of short stature. Annualized growth velocity was standardized using data from the First Zurich Longitudinal Study of Growth and Development[9] as it includes growth velocity data starting at age 2.5 years. Height SDS was calculated using the United States CDC growth charts.[8] Hypochondroplasia specific height SDS was calculated using recently published hypochondroplasia growth curves.[10] To measure these outcomes, the following 3 co-primary endpoints were specified: 1. The incidence of adverse events per participant, 2. The change from baseline in age-sex standardized annualized growth velocity after 12 months of treatment, and 3. The change from baseline in age-sex standardized height SDS after 12 months of treatment. Height was measured five times at each study visit on a wall-mounted calibrated Harpenden stadiometer. The average of all five values was used. Safety assessments included routine laboratory evaluations at each visit, baseline and Month 12 echocardiograms, electrocardiograms at each visit, vital signs measurements, and spine X-rays at Day 1 and Month 12. No formal power calculations were done for this proof of principle study. Sample size was determined based on logistical feasibility. Medication adherence was calculated using the number of returned empty vials divided by the number of days of prescribed therapy. Demographics and clinical characteristics were summarized with mean and standard deviation (SD), median and interquartile (IQR) for numerical variables, frequency and proportion for categorical variables. Primary and secondary clinical outcomes were summarized with mean (SD) for the 6-month observation period and the 12-month treatment period. Paired t-tests were carried out to compare the difference between the treatment and observation periods. The corresponding p-value and 95% confidence interval (CI) were reported. Box and whisker plots were used for both primary endpoints (annualized growth velocity and height SDS) and exploratory endpoints (CXM and cGMP) to visualize the trends for the change from baseline to each of the follow-up visits. Safety data (AEs) were summarized as count and percentage of patients as well as the number of total occurrences per each listed AE for the observation period and the treatment period, respectively. As exploratory analyses, the primary endpoints were stratified based on age, baseline growth velocity and baseline height SDS. The summaries of mean (SD) for each visit, mean differences between treatment and observation periods, and the corresponding p-value and 95% CI were all reported. Parent reported quality of life using the […] scale was also reported with a similar tabular format. Data were analyzed using SAS for Windows version 9.4 (SAS Institute Inc., Cary, NC). A two-sided test with a significance level of 0.05 was used for all hypothesis tests.

[2] = tested on: neutral endopeptidase (NEP); conditions: conveyed by Pro-Gly addition on the N-terminus; protocol statement, no data shown; cited from earlier work
Text: Third, Dr. Dauber (the PI) will p ...

[3] = tested on: urine cGMP; assay: Urine cGMP after vosoritide injection, normalized to urine creatinine; assay type: in vivo, human
Procedure: Secondary outcomes included the change in body proportions as measured by sitting height to standing height ratio and arm span minus standing height, as well as the change in bone age to chronological age ratio after 12 months of therapy. Sitting height was measured three times at each visit using a sitting height table. The average of the three values was used. Sitting height to standing height ratio and arm span minus standing height were standardized for age and sex using available reference data and SDS were calculated.[11]^,[12] Bone age X-rays were read by a single reviewer who was blinded to participant ID, age and time point. Exploratory endpoints included pharmacokinetic parameters, pharmacodynamic markers including collagen X biomarker (CXM) levels and urine cGMP production, and changes in quality of life as measured by the QoLISSY scale.[13] CXM levels in serum were measured in duplicate via an ELISA assay at the Shriners Hospitals for Children in Portland, Oregon as previously described.[14] The average of the two values was used for analysis. Urine samples were obtained for cGMP measurement at baseline and 60, 120, and 240 min after vosoritide injections at the Day 1, Month 6 and Month 12 visits. cGMP levels were assayed at ICON Laboratories (Farmingdale, NY) and were normalized to urine creatinine levels at each time point.

For “PGQEHPNARKYKGANKKGLSKGCFGLKLDRIGSMSGLGC (disulfide) [vosoritide, recombinant 39-amino-acid C-type natriuretic peptide analog expressed in E. coli, cyclic by an intramolecular disulfide bond]”, the “Abdominal pain: # of patients” value [1] was 5, the “Abdominal pain: # of total occurrences” value [1] was 15 and the “Abdominal pain: % of patients” value [1] was 20.8%. The “Any injection site reaction (overall): # of patients” value [1] was 20, the “Any injection site reaction (overall): # of total occurrences” value [1] was 329 and the “Any injection site reaction (overall): % of patients” value [1] was 83.3%. For the same sequence, the “Assay for drug induced anti-platelet antibodies” value [1] was “negative”, the “Cough: # of patients” value [1] was 12 and the “Cough: # of total occurrences” value [1] was 20. The “Cough: % of patients” value [1] was 50.0%, the “Diarrhea: # of patients” value [1] was 2 and the “Diarrhea: # of total occurrences” value [1] was 3. The “Diarrhea: % of patients” value [1] was 8.3%, the “Discontinuation due to a treatment related adverse event” value [1] was “No participants discontinued treatment” and the “Dizziness: # of patients” value [1] was 3. The “Dizziness: # of total occurrences” value [1] was 4, the “Dizziness: % of patients” value [1] was 12.5% and the “Ear infection: # of patients” value [1] was 2. For the same sequence, the “Ear infection: # of total occurrences” value [1] was 2, the “Ear infection: % of patients” value [1] was 8.3% and the “Epistaxis: # of patients” value [1] was 3. The “Epistaxis: # of total occurrences” value [1] was 3, the “Epistaxis: % of patients” value [1] was 12.5% and the “Fever: # of patients” value [1] was 13. The “Fever: # of total occurrences” value [1] was 29, the “Fever: % of patients” value [1] was 54.2% and the “Headache: # of patients” value [1] was 6. The “Headache: # of total occurrences” value [1] was 17, the “Headache: % of patients” value [1] was 25.0% and the “Injection site bruising: # of patients” value [1] was 6. The “Injection site bruising: # of total occurrences” value [1] was 20, the “Injection site bruising: % of patients” value [1] was 25.0% and the “Injection site erythema: # of patients” value [1] was 13. The “Injection site erythema: # of total occurrences” value [1] was 113, the “Injection site erythema: % of patients” value [1] was 54.2% and the “Injection site pain: # of patients” value [1] was 7. For the same sequence, the “Injection site pain: # of total occurrences” value [1] was 61, the “Injection site pain: % of patients” value [1] was 29.2% and the “Injection site swelling: # of patients” value [1] was 13. The “Injection site swelling: # of total occurrences” value [1] was 116, the “Injection site swelling: % of patients” value [1] was 54.2% and the “Injection site urticaria: # of patients” value [1] was 7. The “Injection site urticaria: # of total occurrences” value [1] was 19, the “Injection site urticaria: % of patients” value [1] was 29.2% and the “Laceration: # of patients” value [1] was 3. The “Laceration: # of total occurrences” value [1] was 3, the “Laceration: % of patients” value [1] was 12.5% and the “Nasopharyngitis: # of patients” value [1] was 2. For the same sequence, the “Nasopharyngitis: # of total occurrences” value [1] was 2, the “Nasopharyngitis: % of patients” value [1] was 8.3% and the “Other Grade 3 or higher adverse events” value [1] was “no other Grade 3 or higher adverse events”. For the same sequence, the “Rash maculo-papular: # of patients” value [1] was 2, the “Rash maculo-papular: # of total occurrences” value [1] was 2 and the “Rash maculo-papular: % of patients” value [1] was 8.3%. The “Rhinorrhea: # of patients” value [1] was 6, the “Rhinorrhea: # of total occurrences” value [1] was 6 and the “Rhinorrhea: % of patients” value [1] was 25.0%. For the same sequence, the “Scoliosis: # of patients” value [1] was 3, the “Scoliosis: # of total occurrences” value [1] was 3 and the “Scoliosis: % of patients” value [1] was 12.5%. For the same sequence, the “Severity and outcome of injection site reactions” value [1] was “grade 1 or 2 and self-resolved”, the Symptomatic hypotension [1] was “no episodes of symptomatic hypotension” and the Syncope [1] was “One participant”. For the same sequence, the “Upper respiratory tract infection: # of patients” value [1] was 2, the “Upper respiratory tract infection: # of total occurrences” value [1] was 2 and the “Upper respiratory tract infection: % of patients” value [1] was 8.3%. The “Vomiting: # of patients” value [1] was 11, the “Vomiting: # of total occurrences” value [1] was 18 and the “Vomiting: % of patients” value [1] was 45.8%. The “Degradation by neutral endopeptidase (NEP)” value [2] was “resistance to neutral endopeptidase (NEP) degradation”, the “Average maximum cGMP increase from baseline across visits” value ([3]; Day 1, Month 6, Month 12 compared) was “not significantly different at Day 1, Month 6 or Month 12” and the “Time of peak urine cGMP after administration” value ([3]; samples at baseline, 60, 120 and 240 min after injection) was 2 h. For the same sequence, the “Time to evident increase in urine cGMP after administration” value ([3]; samples at baseline, 60, 120 and 240 min after injection, Day 1, Month 6, Month 12) was no more than 1 h.

Source: PMC11133798, “Vosoritide treatment for children with hypochondroplasia: a phase 2 trial” (eClinicalMedicine, 2024)
